Tested on: SK-N-SH human neuroblastoma cells
Assay: Serum deprivation/JC-1 mitochondrial membrane potential (MMP) assay
Format: cell-based
Conditions: Homo sapiens; for Emax: SK-N-SH, percent maximal intensity in JC-1 ratio normalized to 10 μM dimebolin, read-out: JC-1 max %; for EC50: SK-N-SH cells, serum deprivation ~18 hours, JC-1 ratio normalized to peak value for 10 μM dimebolin, single curve fit to mean data of n=2-3, read-out: EC50
Experimental: SK-N-SH human neuroblastoma cells obtained from American Type Culture Collection (Rockville, Md.) were maintained in the log phase of growth in Minimal Essential Media (MEM), 10% heat inactivated fetal calf serum and 100 units/mL antibiotic-antimycotic (AA). Cells were cultured and maintained in a humidified incubator at 37° C. under 5% CO2 and 95% air. Cells were trypsinized (0.25%) and subcultured every 3 days and used from 15-18 passages. All cell culture supplies were obtained from Invitrogen (Carlsbad, Calif.).
SK-N-SH cells were plated 2-3 days in advance at a concentration of 50,000 cells/well onto collagen coated black-walled 96 well plates (Becton-Dickinson, Bedford, Mass.) in a total volume of 200 μL. On day of experimental treatment, the media containing serum was aspirated from each well and rinsed once with MEM/1% AA without serum. The cells then were incubated overnight in 100 μL of MEM/1% AA (no serum) with and without dimebolin or novel chemical entities overnight for ˜18 hours. The following day, JC-1 dye (5,5′,6,6′-tetrachloro-1,1′,3,3′-tetraethylbenzimidazolcarbocyanide) was diluted 1:10 into MEM media according to the JC-1 Mitochondrial Membrane Potential Assay Kit: (Cayman Chemical Company, Ann Arbor, Mich.) and then 10 μL of the JC-1 dye solution was added to each well. The plates were centrifuged for 5 minutes at 400×g at room temperature followed by 35 minute incubation at 37° C. The plates were washed twice with 200[…] μL of provided Assay Buffer followed an addition of 100 μL of Assay Buffer to each well. The plates were read with an excitation and emission of 560 nm and 595 nM for red fluorescence and with an excitation and emission of 485 nm and 535 nM for green fluorescence to determine the final JC-1 value taking the red to green fluorescence ratio. This assay is based on change in mitochondrial membrane potential (MMP) using this lipophilic cationic dye, JC-1, by monitoring the changes in the ratio of red to green fluorescence as the MMP depolarizes. This change in MMP reflects the health of the cell with healthy, viable cells have a high JC-1 ratio and high MMP whereas apoptotic, unhealthy cells have a low JC-1 ratio or low MMP.
For the ability of compounds to reverse the stress due to serum deprivation and increase the JC-1 ratio, the percent maximal intensity in JC-1 ratio was normalized to that induced by the peak value for 10 μM dimebolin and plotted against the compound concentration to calculate EC50 values and to control for plate-to-plate variability. Concentration-response data were analyzed using GraphPad Prism (San Diego, Calif.); the EC50 values were derived from a single curve fit to the mean data of n=2-3, in duplicates.
All compounds were dissolved in dimethyl sulfoxide at 10 mM stock solutions and tested at a concentration that the dimethyl sulfoxide levels never exceeded 1%.

CN1CCc2cc(-n3c4c(c5ccccc53)CN3CCC4CC3)ccc2C1 [Example 268, 6-(2-methyl-1,2,3,4-tetrahydroisoquinolin-6-yl)-3,4,5,6-tetrahydro-1H-2,5-ethanoazepino[4,3-b]indole]
Emax: 237%
EC50: 4.43 µM

CN1C2CCC1c1c(n(CCc3ccc(Cl)cc3)c3ccc(C(C)(C)C)cc13)C2 (stereo not shown) [Example 105, 2-tert-butyl-5-[2-(4-chlorophenyl)ethyl]-11-methyl-5,6,7,8,9,10-hexahydro-7,10-epiminocyclohepta[b]indole]
Emax: 129%
EC50: 3.88 µM

Cc1ccc2c(c1)c1c(n2S(=O)(=O)c2cccnc2)CC2CCC1N2C (stereo not shown) [Example 77, 2,11-dimethyl-5-(pyridin-3-ylsulfonyl)-5,6,7,8,9,10-hexahydro-7,10-epiminocyclohepta[b]indole]
Emax: 223%
EC50: 9.22 µM

c1ccc2nc(-n3c4c(c5ccccc53)CN3CCC4CC3)ccc2c1 [Example 235, 6-quinolin-2-yl-3,4,5,6-tetrahydro-1H-2,5-ethanoazepino[4,3-b]indole]
Emax: 252%
EC50: 3.96 µM

Cc1ccc(CCn2c3c(c4cc(OC(F)(F)F)ccc42)C2CCCC(C3)N2)cn1 (stereo not shown) [Example 140, 5-[2-(6-methylpyridin-3-yl)ethyl]-2-(trifluoromethoxy)-6,7,8,9,10,11-hexahydro-5H-7,11-epiminocycloocta[b]indole]
Emax: 194%
EC50: 3.32 µM

CC(C)c1ccc2c(c1)c1c(n2CCc2ccc(Cl)cc2)C[C@H]2CC[C@@H]1N2C (single isomer, unassigned) [Example 100]
Emax: 140%
EC50: 3.63 µM

Cc1ccc(/C=C/n2c3c(c4cc(C)ccc42)[C@@H]2CC[C@H](C3)N2C)cc1 [Example 59, (7R,10S)-2,11-dimethyl-5-[(E)-2-(4-methylphenyl)vinyl]-5,6,7,8,9,10-hexahydro-7,10-epiminocyclohepta[b]indole]
Emax: 202%
EC50: 4.14 µM

Clc1ccc(CCn2c3c(c4cc(Br)ccc42)CN2CCC3CC2)cc1 [Example 174, 9-bromo-6-[2-(4-chlorophenyl)ethyl]-3,4,5,6-tetrahydro-1H-2,5-ethanoazepino[4,3-b]indole]
Emax: 105%
EC50: 5.48 µM

c1cc(-n2cccn2)nc(-n2c3c(c4ccccc42)CN2CCC3CC2)c1 [Example 236, 6-[6-(1H-pyrazol-1-yl)pyridin-2-yl]-3,4,5,6-tetrahydro-1H-2,5-ethanoazepino[4,3-b]indole]
Emax: 268%
EC50: 1.74 µM

Cc1ccc(/C=C/n2c3c(c4cc(F)ccc42)CN2CCC3CC2)cn1 [Example 162, 9-fluoro-6-[(E)-2-(6-methylpyridin-3-yl)vinyl]-3,4,5,6-tetrahydro-1H-2,5-ethanoazepino[4,3-b]indole]
Emax: 205%
EC50: 17 µM

Cc1ccc2c(c1)[C@@H]1CN3CCC(CC3)[C@@H]1N2CCc1ccc(C)nc1 (single isomer, unassigned) [Example 159]
Emax: 240%
EC50: 2.67 µM

Cc1ccc2c(c1)c1c(n2-c2ccc3ncncc3c2)C2CCN(CC2)C1 [Example 219, 9-methyl-6-quinazolin-6-yl-3,4,5,6-tetrahydro-1H-2,5-ethanoazepino[4,3-b]indole]
Emax: 201%
EC50: 3.07 µM

Cc1ccc2c(c1)c1c(n2CCc2ccc(Cl)cc2)C[C@H]2CC[C@@H]1N2C [Example 44, (7R,10S)-5-[2-(4-chlorophenyl)ethyl]-2,11-dimethyl-5,6,7,8,9,10-hexahydro-7,10-epiminocyclohepta[b]indole]
Emax: 291%
EC50: 3.31 µM

Cc1ccc2c(c1)c1c(n2CCc2ccccc2C)C2CC3CC1CN(C3)C2 (stereo not shown) [Example 197, 11-methyl-8-[2-(2-methylphenyl)ethyl]-1,4,5,6,7,8-hexahydro-2H-1,5:3,7-dimethanoazonino[5,4-b]indole]
Emax: 173%
EC50: 5.63 µM

Cc1ccc2c(c1)c1c(n2CCc2ccc(Cl)nc2)C2CC3CC1CN(C3)C2 (stereo not shown) [Example 196, 8-[2-(6-chloropyridin-3-yl)ethyl]-11-methyl-1,4,5,6,7,8-hexahydro-2H-1,5:3,7-dimethanoazonino[5,4-b]indole]
Emax: 182%
EC50: 3.91 µM

O=c1cccnn1-c1ccc(-n2c3c(c4ccccc42)CN2CCC3CC2)cc1 [Example 287, 2-[4-(1,3,4,5-tetrahydro-6H-2,5-ethanoazepino[4,3-b]indol-6-yl)phenyl]pyridazin-3(2H)-one]
Emax: 209%
EC50: 1.53 µM

COc1ccc2c(c1)c1c(n2CCc2ccc(C)nc2)CC2CCC1N2C (stereo not shown) [Example 91, 2-methoxy-11-methyl-5-[2-(6-methylpyridin-3-yl)ethyl]-5,6,7,8,9,10-hexahydro-7,10-epiminocyclohepta[b]indole]
Emax: 129%
EC50: 6.33 µM

CCN1C2CCC1c1c(n(CCc3ccc(C)nc3)c3ccc(C)cc13)C2 (stereo not shown) [Example 12, 11-ethyl-2-methyl-5-[2-(6-methylpyridin-3-yl)ethyl]-5,6,7,8,9,10-hexahydro-7,10-epiminocyclohepta[b]indole]
Emax: 181%
EC50: 5.58 µM

c1cnc2cc(-n3c4c(c5ccccc53)CN3CCC4CC3)ccc2c1 [Example 234, 6-quinolin-7-yl-3,4,5,6-tetrahydro-1H-2,5-ethanoazepino[4,3-b]indole]
Emax: 281%
EC50: 1.27 µM

Cc1ccc2c(c1)c1c(n2CCc2ccccc2F)C2CCN(CC2)C1 [Example 150, 6-[2-(2-fluorophenyl)ethyl]-9-methyl-3,4,5,6-tetrahydro-1H-2,5-ethanoazepino[4,3-b]indole]
Emax: 134%
EC50: 3.6 µM

Fc1ccc2c(c1)c1c(n2Cc2ccnc(F)c2)C2CCN(CC2)C1 [Example 191, 9-fluoro-6-[(2-fluoropyridin-4-yl)methyl]-3,4,5,6-tetrahydro-1H-2,5-ethanoazepino[4,3-b]indole]
Emax: 112%
EC50: 7.04 µM

Cc1ccc2c(c1)c1c(n2CCc2cccc(C(F)(F)F)c2)C2CCN(CC2)C1 [Example 152, 9-methyl-6-{2-[3-(trifluoromethyl)phenyl]ethyl}-3,4,5,6-tetrahydro-1H-2,5-ethanoazepino[4,3-b]indole]
Emax: 156%
EC50: 3.86 µM

O=c1ccccn1-c1cccc(-n2c3c(c4ccccc42)CN2CCC3CC2)n1 [Example 273, 6′-(1,3,4,5-tetrahydro-6H-2,5-ethanoazepino[4,3-b]indol-6-yl)-2H-1,2′-bipyridin-2-one]
Emax: 190%
EC50: 7.48 µM

Cc1ccc2c(c1)c1c(n2-c2ccc3ccncc3c2)C2CCN(CC2)C1 [Example 216, 6-isoquinolin-7-yl-9-methyl-3,4,5,6-tetrahydro-1H-2,5-ethanoazepino[4,3-b]indole]
Emax: 284%
EC50: 4.2 µM

c1ccc2c(c1)c1c(n2Cc2ccncc2)C2CCN(CC2)C1 [Example 189, 6-[(pyridin-4-yl)methyl]-3,4,5,6-tetrahydro-1H-2,5-ethanoazepino[4,3-b]indole]
Emax: 107%
EC50: 11.3 µM

Cc1ccc(CCn2c3c(c4cc(OC(F)(F)F)ccc42)CN2CCC3CC2)cn1 [Example 178, 6-[2-(6-methylpyridin-3-yl)ethyl]-9-(trifluoromethoxy)-3,4,5,6-tetrahydro-1H-2,5-ethanoazepino[4,3-b]indole]
Emax: 192%
EC50: 4.17 µM

O=c1cccnn1CCn1c2c(c3cc(F)ccc31)CN1CCC2CC1 [Example 238, 2-[2-(9-fluoro-1,3,4,5-tetrahydro-6H-2,5-ethanoazepino[4,3-b]indol-6-yl)ethyl]pyridazin-3(2H)-one]
Emax: 86.5%
EC50: 11.6 µM

Fc1ccc2c(c1)c1c(n2Cc2cn3cccnc3n2)C2CCN(CC2)C1 [Example 254, 9-fluoro-6-(imidazo[1,2-a]pyrimidin-2-ylmethyl)-3,4,5,6-tetrahydro-1H-2,5-ethanoazepino[4,3-b]indole]
Emax: 57.1%
EC50: 8.09 µM

Fc1ccc2c(c1)c1c(n2Cc2nc3ccccc3[nH]2)C2CCN(CC2)C1 [Example 250, 6-(1H-benzimidazol-2-ylmethyl)-9-fluoro-3,4,5,6-tetrahydro-1H-2,5-ethanoazepino[4,3-b]indole]
Emax: 77.3%
EC50: 8.37 µM
